Consider nine compounds from ChEMBL document CHEMBL3217622, “Design of 7-amino-6-chloro-3H-imidazo[4,5-b]pyridine scaffold from 5-chloro-2,4-diaminopyrimidine pharmacophore: identification of potent inhibitors of anaplastic lymphoma kinase” (Medchemcomm, 2012).

The target of one data set is T1, Cytochrome P450 1A2 (Homo sapiens, UniProt P05177).
T1 sequence (P05177 whole entry): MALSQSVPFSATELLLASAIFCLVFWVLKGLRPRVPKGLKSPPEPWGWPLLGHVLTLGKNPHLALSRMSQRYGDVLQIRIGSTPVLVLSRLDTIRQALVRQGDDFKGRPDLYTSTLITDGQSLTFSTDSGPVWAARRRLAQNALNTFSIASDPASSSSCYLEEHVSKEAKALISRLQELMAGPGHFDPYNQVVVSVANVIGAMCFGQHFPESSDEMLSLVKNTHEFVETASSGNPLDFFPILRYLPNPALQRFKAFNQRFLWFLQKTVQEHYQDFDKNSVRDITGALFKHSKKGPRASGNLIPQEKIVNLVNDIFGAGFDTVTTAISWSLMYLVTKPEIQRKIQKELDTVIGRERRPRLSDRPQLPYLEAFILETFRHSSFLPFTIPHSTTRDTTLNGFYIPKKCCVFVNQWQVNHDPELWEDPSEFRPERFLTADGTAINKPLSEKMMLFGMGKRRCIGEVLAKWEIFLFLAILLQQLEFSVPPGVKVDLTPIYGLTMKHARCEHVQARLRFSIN
Nature of the data set: Inhibition of CYP1A2 in human pooled liver microsomes using phenacetin as substrate by LC/MS/MS analysis.

Data set [1] has as its system Rattus norvegicus. Nature of the data set: (§1) Cmax in rat at 5 mg/kg, po. Details: dose 5 mg/kg, route oral. To be noted: in vivo, BLD = below limit of detection. Type of data set: ADME, organism-based.
The test system of data set [2] is Rattus norvegicus. Nature of the data set: Half life in rat at 1 mg/kg, iv. Type of data set: ADME, organism-based. Details: dose 1 mg/kg, route intravenous. Particulars: in vivo.
The target in the next data set is Cytochrome P450 2C9 (Homo sapiens, UniProt P11712). Description: Inhibition of CYP2C9 in human pooled liver microsomes using diclofenac as substrate by LC/MS/MS analysis. For orientation: Microsomes from liver hold many membrane-bound enzymes, among them those of drug oxidation.
Sequence of Cytochrome P450 2C9 (P11712 whole entry): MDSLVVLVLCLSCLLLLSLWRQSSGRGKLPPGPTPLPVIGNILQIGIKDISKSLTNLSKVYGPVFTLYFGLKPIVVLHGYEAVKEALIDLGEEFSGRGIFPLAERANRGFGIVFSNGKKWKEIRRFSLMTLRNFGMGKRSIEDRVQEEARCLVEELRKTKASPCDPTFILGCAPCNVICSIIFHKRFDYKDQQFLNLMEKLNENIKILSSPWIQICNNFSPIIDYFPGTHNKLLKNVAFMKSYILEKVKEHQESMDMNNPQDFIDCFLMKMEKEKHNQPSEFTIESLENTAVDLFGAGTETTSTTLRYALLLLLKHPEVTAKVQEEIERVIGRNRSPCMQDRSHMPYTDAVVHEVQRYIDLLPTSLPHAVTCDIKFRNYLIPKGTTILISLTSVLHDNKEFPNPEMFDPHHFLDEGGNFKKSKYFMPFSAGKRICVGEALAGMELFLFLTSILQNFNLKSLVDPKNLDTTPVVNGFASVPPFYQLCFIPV
Data set [3] can be described thus: AUC (0 to infinity) in rat at 1 mg/kg, iv. Particulars: plasma. Details: dose 1 mg/kg, route intravenous, time infinity. Type of data set: ADME, organism-based.
The target in data set [4] is T2, Cytochrome P450 3A4 (Homo sapiens, UniProt P08684). Nature of the data set: Inhibition of CYP3A4 in human pooled liver microsomes using testosterone as substrate by LC/MS/MS analysis.
T2 sequence (P08684 whole entry): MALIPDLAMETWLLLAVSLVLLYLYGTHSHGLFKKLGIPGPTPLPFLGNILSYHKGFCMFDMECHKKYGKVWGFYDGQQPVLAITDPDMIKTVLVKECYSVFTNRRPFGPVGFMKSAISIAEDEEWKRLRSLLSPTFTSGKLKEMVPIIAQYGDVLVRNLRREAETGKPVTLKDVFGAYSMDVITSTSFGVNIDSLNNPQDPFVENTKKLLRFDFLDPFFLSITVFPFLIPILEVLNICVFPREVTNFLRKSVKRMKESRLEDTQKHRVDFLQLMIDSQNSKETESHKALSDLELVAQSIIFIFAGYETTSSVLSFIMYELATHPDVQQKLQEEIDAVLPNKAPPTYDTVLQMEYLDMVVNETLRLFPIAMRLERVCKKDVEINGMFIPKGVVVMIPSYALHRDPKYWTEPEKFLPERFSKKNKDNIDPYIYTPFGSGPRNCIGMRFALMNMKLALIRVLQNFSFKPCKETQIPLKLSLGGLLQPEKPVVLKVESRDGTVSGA
A further data set deals with Cytochrome P450 2D6 (Homo sapiens, UniProt P10635). Nature of the data set: Inhibition of CYP2D6 in human pooled liver microsomes using dextromethorphan as substrate by LC/MS/MS analysis.
Sequence of Cytochrome P450 2D6 (P10635 whole entry): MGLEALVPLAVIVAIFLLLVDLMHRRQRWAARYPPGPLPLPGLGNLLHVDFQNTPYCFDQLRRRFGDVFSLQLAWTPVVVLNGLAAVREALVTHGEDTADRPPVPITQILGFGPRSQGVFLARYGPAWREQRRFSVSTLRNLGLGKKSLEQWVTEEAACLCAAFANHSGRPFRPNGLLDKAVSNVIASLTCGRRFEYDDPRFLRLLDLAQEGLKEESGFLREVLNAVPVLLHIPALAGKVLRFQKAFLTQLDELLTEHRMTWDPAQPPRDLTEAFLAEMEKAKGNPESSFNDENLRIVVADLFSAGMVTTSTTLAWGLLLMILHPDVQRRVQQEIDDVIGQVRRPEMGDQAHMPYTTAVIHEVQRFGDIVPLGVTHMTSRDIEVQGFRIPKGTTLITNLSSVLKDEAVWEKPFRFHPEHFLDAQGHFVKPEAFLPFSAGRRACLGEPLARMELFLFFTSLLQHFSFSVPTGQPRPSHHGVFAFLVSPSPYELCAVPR
In a further data set the target is Cytochrome P450 2C19 (Homo sapiens, UniProt P33261). Nature of the data set: Inhibition of CYP2C19 in human pooled liver microsomes using S-mephenytoin as substrate by LC/MS/MS analysis.
Sequence of Cytochrome P450 2C19 (P33261 whole entry): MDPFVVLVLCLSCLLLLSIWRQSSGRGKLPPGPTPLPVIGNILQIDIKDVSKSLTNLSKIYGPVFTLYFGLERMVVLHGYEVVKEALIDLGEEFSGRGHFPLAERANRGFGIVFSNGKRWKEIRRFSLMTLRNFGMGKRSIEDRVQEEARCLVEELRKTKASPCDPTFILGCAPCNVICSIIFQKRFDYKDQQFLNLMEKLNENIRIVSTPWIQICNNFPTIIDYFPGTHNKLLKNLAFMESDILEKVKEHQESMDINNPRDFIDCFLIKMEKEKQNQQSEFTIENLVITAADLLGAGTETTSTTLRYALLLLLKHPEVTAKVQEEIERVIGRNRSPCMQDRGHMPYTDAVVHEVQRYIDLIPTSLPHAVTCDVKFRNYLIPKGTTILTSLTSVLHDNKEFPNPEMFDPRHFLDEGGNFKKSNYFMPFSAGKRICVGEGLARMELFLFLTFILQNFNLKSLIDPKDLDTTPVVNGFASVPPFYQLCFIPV
Data set [5] deals with Rattus norvegicus. Description: (§2) AUC (0 to infinity) in rat at 5 mg/kg, po. Type of data set: ADME, organism-based, Plasma. The arrangement: dose 5 mg/kg, route oral, time infinity. Particulars: in vivo, BLD = below limit of detection.
Data set [6] deals with Rattus norvegicus. Description: Volume of distribution in rat at 1 mg/kg, iv. Type of data set: ADME, organism-based. The arrangement: dose 1 mg/kg, route intravenous. To be noted: in vivo.
The target of data set [7] is T2, Cytochrome P450 3A4. Description: Inhibition of CYP3A4 in human pooled liver microsomes using midazolam as substrate by LC/MS/MS analysis.
The nature of data set [8]: Oral bioavailability in rat at 5 mg/kg. Type of data set: ADME, organism-based. Particulars: in vivo.
Data set [9] concerns Liver microsome. Description: Bioactivation in human liver microsomes in presence of NADPH.
A short description of data set [10]: as §1. Particulars: in vivo. Type of data set: ADME, organism-based. Details: dose 5 mg/kg, route oral.
Data set [11] relates to Liver microsome. Description: Metabolic stability in human liver microsomes assessed as GSH conjugation by LC/MS analysis. Type of data set: ADME.
The nature of data set [12]: as §2. Type of data set: ADME, organism-based, Plasma. The arrangement: dose 5 mg/kg, route oral, time infinity. Particulars: plasma.
A short description of data set [13]: Apparent permeability of the compound from apical to basolateral side in human Caco2 cells by absorption system analysis. To be noted: Caco-2. (Caco-2 cells form a polarised layer with tight junctions and transporters.)
The target in data set [14] is ALK tyrosine kinase receptor (Homo sapiens, UniProt Q9UM73). Description: Inhibition of ALK (unknown origin).
Sequence of ALK tyrosine kinase receptor (Q9UM73 whole entry): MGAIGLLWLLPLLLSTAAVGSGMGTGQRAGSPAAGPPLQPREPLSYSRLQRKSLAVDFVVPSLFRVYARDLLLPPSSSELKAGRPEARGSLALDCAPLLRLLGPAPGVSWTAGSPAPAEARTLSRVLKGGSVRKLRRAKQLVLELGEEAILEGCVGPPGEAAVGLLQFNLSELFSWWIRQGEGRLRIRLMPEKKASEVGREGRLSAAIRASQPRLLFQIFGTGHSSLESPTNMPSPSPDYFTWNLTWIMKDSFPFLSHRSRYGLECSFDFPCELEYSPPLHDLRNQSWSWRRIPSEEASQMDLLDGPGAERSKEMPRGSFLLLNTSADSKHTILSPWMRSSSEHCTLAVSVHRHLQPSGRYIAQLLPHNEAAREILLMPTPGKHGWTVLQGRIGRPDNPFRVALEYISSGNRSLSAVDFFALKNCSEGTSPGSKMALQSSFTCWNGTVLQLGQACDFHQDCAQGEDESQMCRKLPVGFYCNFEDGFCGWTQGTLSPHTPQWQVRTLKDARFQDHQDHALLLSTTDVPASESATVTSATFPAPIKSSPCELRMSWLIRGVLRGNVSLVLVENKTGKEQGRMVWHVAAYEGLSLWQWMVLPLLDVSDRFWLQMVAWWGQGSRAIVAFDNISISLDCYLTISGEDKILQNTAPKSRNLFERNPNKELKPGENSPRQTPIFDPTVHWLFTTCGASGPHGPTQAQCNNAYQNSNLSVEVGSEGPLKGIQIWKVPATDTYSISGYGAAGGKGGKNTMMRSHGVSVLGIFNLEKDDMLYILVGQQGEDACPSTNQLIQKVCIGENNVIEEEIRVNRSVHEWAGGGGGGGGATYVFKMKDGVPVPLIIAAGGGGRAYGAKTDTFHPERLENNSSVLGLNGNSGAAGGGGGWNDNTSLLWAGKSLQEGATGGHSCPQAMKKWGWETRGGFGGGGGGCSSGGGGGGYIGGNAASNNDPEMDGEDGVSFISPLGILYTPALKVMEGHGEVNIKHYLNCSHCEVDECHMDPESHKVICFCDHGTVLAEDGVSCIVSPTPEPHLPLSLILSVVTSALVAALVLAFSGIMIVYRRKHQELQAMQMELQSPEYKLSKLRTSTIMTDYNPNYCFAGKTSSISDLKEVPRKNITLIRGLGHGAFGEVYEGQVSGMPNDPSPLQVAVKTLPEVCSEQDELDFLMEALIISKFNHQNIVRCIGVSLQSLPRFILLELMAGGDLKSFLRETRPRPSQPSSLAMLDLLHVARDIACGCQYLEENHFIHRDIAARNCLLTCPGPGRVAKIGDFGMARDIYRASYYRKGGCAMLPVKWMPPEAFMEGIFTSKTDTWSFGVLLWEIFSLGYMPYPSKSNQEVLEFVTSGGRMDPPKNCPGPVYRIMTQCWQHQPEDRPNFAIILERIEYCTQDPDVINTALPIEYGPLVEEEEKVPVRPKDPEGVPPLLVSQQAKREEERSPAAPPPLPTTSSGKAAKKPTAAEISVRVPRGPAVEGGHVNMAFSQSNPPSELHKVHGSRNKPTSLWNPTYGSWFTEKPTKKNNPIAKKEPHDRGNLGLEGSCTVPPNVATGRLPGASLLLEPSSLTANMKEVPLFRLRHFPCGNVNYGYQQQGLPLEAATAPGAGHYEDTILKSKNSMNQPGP
The target in data set [15] is Voltage-gated inwardly rectifying potassium channel KCNH2 (Homo sapiens, UniProt Q12809). Description: Inhibition of human ERG by automated patch-clamp assay.
Sequence of Voltage-gated inwardly rectifying potassium channel KCNH2 (Q12809 whole entry): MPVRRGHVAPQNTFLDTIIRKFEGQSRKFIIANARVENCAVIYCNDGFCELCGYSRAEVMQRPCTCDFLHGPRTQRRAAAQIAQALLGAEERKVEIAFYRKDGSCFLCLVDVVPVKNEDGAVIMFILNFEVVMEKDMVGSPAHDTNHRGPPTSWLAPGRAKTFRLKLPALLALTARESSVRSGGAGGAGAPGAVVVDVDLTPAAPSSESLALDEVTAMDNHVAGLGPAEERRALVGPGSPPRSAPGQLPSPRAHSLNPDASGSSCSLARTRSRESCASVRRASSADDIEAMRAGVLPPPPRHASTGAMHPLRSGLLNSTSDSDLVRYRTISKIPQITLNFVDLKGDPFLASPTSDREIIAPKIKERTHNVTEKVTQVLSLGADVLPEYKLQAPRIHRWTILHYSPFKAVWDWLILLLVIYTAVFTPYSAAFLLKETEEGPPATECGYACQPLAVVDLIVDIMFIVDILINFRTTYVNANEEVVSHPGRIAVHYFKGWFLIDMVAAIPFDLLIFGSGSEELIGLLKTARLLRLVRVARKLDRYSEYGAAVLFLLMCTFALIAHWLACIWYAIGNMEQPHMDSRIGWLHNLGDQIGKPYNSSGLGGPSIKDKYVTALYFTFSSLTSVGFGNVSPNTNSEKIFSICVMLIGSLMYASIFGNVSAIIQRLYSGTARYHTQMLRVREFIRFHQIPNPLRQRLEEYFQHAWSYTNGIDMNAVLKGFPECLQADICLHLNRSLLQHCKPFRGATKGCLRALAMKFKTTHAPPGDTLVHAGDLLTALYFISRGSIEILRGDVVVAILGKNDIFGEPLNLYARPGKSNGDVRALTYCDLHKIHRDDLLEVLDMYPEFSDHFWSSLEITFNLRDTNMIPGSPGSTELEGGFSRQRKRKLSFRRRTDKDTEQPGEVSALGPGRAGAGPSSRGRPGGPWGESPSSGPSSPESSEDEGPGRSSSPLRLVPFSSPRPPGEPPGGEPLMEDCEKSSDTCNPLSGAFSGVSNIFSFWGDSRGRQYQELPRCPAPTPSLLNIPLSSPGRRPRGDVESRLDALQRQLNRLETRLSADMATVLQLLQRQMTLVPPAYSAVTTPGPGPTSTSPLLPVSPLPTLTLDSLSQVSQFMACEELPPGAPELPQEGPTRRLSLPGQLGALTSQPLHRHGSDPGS
The next data set has as its target Insulin receptor (Homo sapiens, UniProt P06213). Description: Inhibition of insulin receptor kinase (unknown origin).

The pIC50 is −log10 of the IC50, conventionally taken in molar units. Low readings indicate a large IC50, high ones a small IC50. As a reminder, the Cmax is the maximum level reached in the sampled fluid or tissue. As a reminder, the AUC(0-inf) is the area under the concentration-time curve extrapolated to infinity. The Vd is the apparent volume that relates the amount in the body to the concentration in plasma or blood. A low value points to confinement near the circulation. As usually defined, the bioavailability is dose-corrected exposure relative to a reference, in per cent. Higher therefore signals good availability. A word on the Papp A→B: it is the apparent permeability from the apical to the basolateral side of a cell layer.

The structures appear in SMILES notation. pIC50: −log10 of the molar value.

For the compound `COc1cc(N2CCC(N3CCN(C)CC3)CC2)ccc1-c1nc2c(N[C@H]3[C@@H](C(N)=O)[C@@H]4C=C[C@H]3C4)c(Cl)cnc2[nH]1`, the negative-log IC50 (pIC50) against Cytochrome P450 1A2, at Cytochrome P450 2C9, on Cytochrome P450 3A4 [4], against Cytochrome P450 2D6, on Cytochrome P450 2C19 and against Cytochrome P450 3A4 [7] was < 4.52 throughout. The Cmax result in the data set on Rattus norvegicus [1] is recorded as “BLD”. The compound also showed a t1/2 with Rattus norvegicus [2] of 150 min. The total exposure AUC(0-inf) in data set [3] amounted to 1430 ng·h/mL. Also, in the data set on Rattus norvegicus [5], the AUC result was “BLD”. The same compound displayed a volume of distribution (Vd) with Rattus norvegicus [6] of 3 L/kg. The compound further came in with a bioavailability in data set [8] of 0%.

As for `COc1cc(N2CCOCC2)ccc1-c1nc2c(N[C@H]3[C@@H](C(N)=O)[C@@H]4C=C[C@H]3C4)c(Cl)cnc2[nH]1`, the Stability entry in the data set on Liver microsome [9] and in the data set on Liver microsome [11] was “Stable” in each case. Moreover, in data set [10], the Cmax stood at 429 ng/mL. The compound further gave a t1/2 in the data set on Rattus norvegicus [2] of 84 min. For the same compound, the values for the total exposure AUC(0-inf) in [3] and in data set [12] were 2480 ng·h/mL and 2580 ng·h/mL, respectively. Also, in the data set with Rattus norvegicus [6], the volume of distribution (Vd) came out at 0.8 L/kg. The compound further displayed a bioavailability in data set [8] of 21%.

Consider `COc1cc(N2CCC(N3CCOCC3)CC2)ccc1-c1nc2c(N[C@H]3[C@@H](C(N)=O)[C@@H]4C=C[C@H]3C4)c(Cl)cnc2[nH]1`, for which, in [10], the concentration peaked (Cmax) at 158 ng/mL. For the same compound, the t1/2 in the data set with Rattus norvegicus [2] came to 114 min. For the same compound, the AUC(0-inf) in [3] worked out at 1750 ng·h/mL; in [12], 740 ng·h/mL. Also, the Vd in the data set on Rattus norvegicus [6] is 1.8 L/kg. In data set [8], the bioavailability is 8%.

Take `COc1cc(CN2CCOCC2)ccc1-c1nc2c(N[C@H]3[C@@H](C(N)=O)[C@@H]4C=C[C@H]3C4)c(Cl)cnc2[nH]1`: the pIC50 against Cytochrome P450 1A2, at Cytochrome P450 2C9, against Cytochrome P450 3A4 [4], against Cytochrome P450 2D6, against Cytochrome P450 2C19 and against Cytochrome P450 3A4 [7] was < 4.52 in each case. The compound further showed a Cmax in [10] of 317 ng/mL. For the same compound, the apical-to-basolateral permeability (Papp A→B) in data set [13] worked out at 10.8 ×10⁻⁶ cm/s. The compound further came in with a t1/2 in the data set on Rattus norvegicus [2] of 96 min. Moreover, the area under the curve AUC(0-inf) came to 451 ng·h/mL in data set [3] and 1730 ng·h/mL in [12]. For the same compound, the distribution volume (Vd) in the data set on Rattus norvegicus [6] worked out at 5.6 L/kg. In addition, in data set [8], the bioavailability came to 76%.

On to `COc1cc(CN2CCN(C)CC2)ccc1-c1nc2c(N[C@H]3[C@@H](C(N)=O)[C@@H]4C=C[C@H]3C4)c(Cl)cnc2[nH]1`, for which the Cmax result in the data set on Rattus norvegicus [1] is given as “BLD”. For the same compound, the t1/2 in the data set with Rattus norvegicus [2] stood at 66 min. For the same compound, the AUC(0-inf) in [3] came out at 1140 ng·h/mL. Also, the AUC result in the data set with Rattus norvegicus [5] was “BLD”. The compound further yielded a distribution volume (Vd) with Rattus norvegicus [6] of 1.6 L/kg. The same compound displayed a bioavailability in data set [8] of 0%.

On to `CN1CCN(c2ccc(-c3nc4c(N[C@H]5[C@@H](C(N)=O)[C@@H]6C=C[C@H]5C6)ccnc4[nH]3)cc2)CC1`, for which, in [14], the pIC50 is < 5.52.

Consider `COc1cc(N2CCN(C)CC2)ccc1-c1nc2c(N[C@H]3[C@@H](C(N)=O)[C@@H]4C=C[C@H]3C4)c(Cl)cnc2[nH]1`, for which the negative-log IC50 (pIC50) against Cytochrome P450 1A2 is < 4.52; at Cytochrome P450 2C9, < 4.52; against Cytochrome P450 3A4 [4], 5.07; in [15] it was < 5.00; against Cytochrome P450 2D6, < 4.52; on Cytochrome P450 2C19, < 4.52. The same compound gave a negative-log IC50 (pIC50) at Cytochrome P450 3A4 [7] of 4.86. Also, in [10], the concentration peaked (Cmax) at 26 ng/mL. Also, the Papp A→B in [13] turned out to be 5 ×10⁻⁶ cm/s. For the same compound, the t1/2 with Rattus norvegicus [2] is 84 min. The total exposure AUC(0-inf) in data set [3] came out at 416 ng·h/mL; in [12], 148 ng·h/mL. In addition, the distribution volume (Vd) with Rattus norvegicus [6] was found to be 5.3 L/kg. In addition, the bioavailability in data set [8] was found to be 7%.

For the compound `COc1cccc(-c2nc3c(N[C@H]4[C@@H](C(N)=O)[C@@H]5C=C[C@H]4C5)c(Cl)cnc3[nH]2)c1`, at Insulin receptor, the negative-log IC50 (pIC50) was < 5.52.

For the compound `NC(=O)[C@@H]1[C@H](Nc2ccnc3[nH]c(-c4ccc(N5CCOCC5)cc4)nc23)[C@H]2C=C[C@@H]1C2`, the pIC50 in data set [14] is < 5.00.
